From patent publication US7253202B2, “Substituted benzodioxepines” (Merck Patent GmbH, priority 2002, dated 2007)

Tests used:
serotonin reuptake = biological target: T1, serotonin reuptake (Rattus norvegicus, UniProt P31652); experiment: Serotonin reuptake inhibition by synaptosomal uptake inhibition (Wong et al.); type: biochemical; settings: read-out: SSRI (IC50 in nmol/l)
T1 construct: from tissue
Description: For ex-vivo detection of serotonin reuptake inhibition, use can be made, for example, of synaptosomal uptake inhibition (Wong et al., Neuropsychopharmacol. 8 (1993), 23-33) and p-chloroamphetamine antagonism (Fuller et al., J. Pharmacol. Exp. Ther. 212 (1980), 115-119).
The serotonin reuptake inhibition was investigated with the aid of synaptosomal uptake inhibition by the method of Wong et al. (Neuropsycho-pharmacol. 8 (1993), 23-33).

5HT1A receptor = biological target: T2, 5HT1A receptor (Rattus norvegicus, UniProt P19327); experiment: 5-HT1A (serotonin) binding test; settings: binding to the 5HT1A receptor; read-out: 5HT1A (IC50 in nmol/l)
T2 construct: from tissue; host or cells: rat brain (hippocampal) membranes
T2 sequence (P19327 1-422): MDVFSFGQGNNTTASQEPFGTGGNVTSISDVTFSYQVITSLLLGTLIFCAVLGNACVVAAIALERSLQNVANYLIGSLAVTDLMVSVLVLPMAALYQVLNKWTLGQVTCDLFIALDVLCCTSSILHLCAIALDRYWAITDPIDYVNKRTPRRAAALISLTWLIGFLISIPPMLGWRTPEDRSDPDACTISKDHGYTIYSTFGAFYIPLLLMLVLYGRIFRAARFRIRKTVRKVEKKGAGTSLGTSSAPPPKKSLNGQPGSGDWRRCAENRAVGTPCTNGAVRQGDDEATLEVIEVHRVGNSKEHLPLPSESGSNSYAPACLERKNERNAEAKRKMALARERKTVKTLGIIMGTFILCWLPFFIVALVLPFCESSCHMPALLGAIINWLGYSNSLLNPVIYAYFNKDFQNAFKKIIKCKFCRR
Procedure: Binding properties of the compounds of the formula I can be determined, for example, by the 5-HT1A (serotonin) binding test (Matzen et al., J. Med. Chem., 43 (2000), 1149-1157, in particular page 1156 with reference to Eur. J. Pharmacol.: 140 (1987), 143-155).
The binding properties to the 5HT1A receptor was determined with the aid of the 5-HT1A (serotonin) binding test (Matzen et al., J. Med. Chem., 43 (2000), 1149-1157, in particular page 1156 with reference to Eur. J. Pharmacol.: 140 (1987), 143-155).

5-HT4 receptor = 5-HT4 receptor (UniProt O70528); experiment: 5-HT4 receptor binding test according to Grossman et al.; settings: binding to the 5-HT4 receptor; read-out: 5HT4 (IC50 in nmol/l)
Description: For determination of the binding properties of the compounds of the formula I to the 5-HT4 receptor, use can be made of the test according to Grossman et al. (Grossman et al., Br. J. Pharmacol. 109, (1993), 618-24).
In order to determine the binding properties to the 5-HT4 receptor, use was made of the test in accordance with Grossman et al. (Grossman et al., Br. J. Pharmacol. 109, (1993), 618-24).

T1 sequence (P31652 whole entry): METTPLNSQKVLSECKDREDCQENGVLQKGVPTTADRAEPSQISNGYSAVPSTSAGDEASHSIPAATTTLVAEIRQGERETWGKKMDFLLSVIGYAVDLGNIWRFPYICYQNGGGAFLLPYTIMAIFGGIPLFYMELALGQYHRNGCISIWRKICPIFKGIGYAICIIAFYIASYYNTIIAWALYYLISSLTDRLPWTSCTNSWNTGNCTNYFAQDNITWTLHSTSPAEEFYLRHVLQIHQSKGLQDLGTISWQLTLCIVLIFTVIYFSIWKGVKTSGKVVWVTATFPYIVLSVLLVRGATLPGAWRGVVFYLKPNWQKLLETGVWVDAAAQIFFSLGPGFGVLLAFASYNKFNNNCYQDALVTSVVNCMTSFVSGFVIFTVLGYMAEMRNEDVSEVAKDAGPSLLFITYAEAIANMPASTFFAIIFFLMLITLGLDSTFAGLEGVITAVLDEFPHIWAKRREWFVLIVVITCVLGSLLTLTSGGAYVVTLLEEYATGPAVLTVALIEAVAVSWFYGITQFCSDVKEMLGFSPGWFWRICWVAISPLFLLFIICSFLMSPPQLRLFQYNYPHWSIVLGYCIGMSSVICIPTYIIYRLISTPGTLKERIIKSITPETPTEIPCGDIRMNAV

SMILES	melting point [°C]	IC50 (serotonin reuptake) [nmol/L]	IC50 (5HT1A receptor) [nmol/L]	IC50 (5-HT4 receptor) [nmol/L]
N#Cc1ccc2[nH]cc(CCCCNCC3CCOc4ccccc4O3)c2c1 (stereo not shown) (hydrate or solvate) [EMD 87322]	78	–	–	–
N#Cc1ccc2[nH]cc(CCCCNC3COc4ccccc4OC3)c2c1 [EMD 76066, N-(3,4-dihydro-2H-1,5-benzodioxepin-3-yl)-4-(5-cyano-3-indole)butylamine]	166 to 168	8	0.5	–

Further lines, results first:

melting point [°C]	IC50 (serotonin reuptake) [nmol/L]	IC50 (5HT1A receptor) [nmol/L]	IC50 (5-HT4 receptor) [nmol/L]	SMILES
–	4	3	–	Cc1ccc2c(c1)OCC(NCCCCc1c[nH]c3ccc(C#N)cc13)CO2 (stereo not shown) [EMD 85350, 3-{4-[7-methyl-3,4-dihydro-2H-1,5-benzodioxepin-3-ylamino]butyl}indole-5-carbonitrile]
–	3	2	–	Cc1cccc2c1OCC(NCCCCc1c[nH]c3ccc(C#N)cc13)CO2 (stereo not shown) [EMD 87319, 3-{4-(6-methyl-3,4-dihydro-2H-1,5-benzodioxepin-3-ylamino)butyl}indole-5-carbonitrile]
–	0.6	4	8.4	N#Cc1ccc2[nH]cc(CCCCNCC3CCOc4ccccc4O3)c2c1 (stereo not shown) [EMD 87322]
–	1	0.6	–	COc1cccc2c1OCC(NCCCCc1c[nH]c3ccc(C#N)cc13)CO2 (stereo not shown) [EMD 87326, 3-[4-(6-methoxy-3,4-dihydro-2H-1,5-benzodioxepin-3-ylamino)butyl]indole-5-carbonitrile]
